In general, logD refers to lipophilicity at a set pH, counting ionised and neutral species. A lower logD goes with lower lipophilicity. The Papp B→A is how fast a substance crosses the layer from the basolateral side. As usually defined, the bioavailability is the share of a dose that reaches the circulation, judged against a reference dose that is usually intravenous. Read a low bioavailability as little systemic uptake. What is called Papp A→B is the apparent permeability from the apical to the basolateral side of a cell layer.

The source of these data is ChEMBL document CHEMBL1156887, “Discovery of olodaterol, a novel inhaled beta2-adrenoceptor agonist with a 24 h bronchodilatory efficacy” (Bioorg Med Chem Lett, 2010).

Data set [1] can be described thus: Lipophilicity, log D at pH 7.4. It counts as physicochemical. Particulars: buffer.
Data set [2] in a line: Apparent permeability from basolateral to apical side in human Caco-2 cells. It is filed as ADME, cell-based.
The nature of data set [3]: Oral bioavailability in rat. It counts as ADME, organism-based. Particulars: in vivo.
A short description of data set [4]: Apparent permeability from apical to basolateral side in human Caco-2 cells. It counts as ADME, cell-based.

As for `COc1ccc(CC(C)(C)NC[C@H](O)c2cc(O)cc3c2OCC(=O)N3)cc1` [OLODATEROL], the logD in data set [1] worked out at 1.2. Moreover, the Papp B→A in data set [2] was determined as 9 ×10⁻⁶ cm/s. This compound registered a bioavailability in data set [3] of 3%. In data set [4], the Papp A→B was found to be 0.35 ×10⁻⁶ cm/s.
